Counter-ions that a name gives are not always drawn.
What was measured:
BMDMs = test: Western blotting of signalling proteins in BMDMs; format: cell-based, mouse; settings: for IFN-β-induced STAT1 and JAK1 phosphorylation / upstream kinases (AKT, JNK, ERK and p38), total and phospho levels: BMDMs pre-treated with DMSO, FHIN1 or DMF
Description: All compounds used DMSO as a vehicle except for 4-hydroxy tamoxifen (EtOH), NAC (PBS), and AOAA for tracing experiments (Media). LPS was used at a concentration of 100 ng/ml for indicated timepoints (2, 3, 4, 6, 8, 24, 48 h). FHIN1 (10 or 20 μM), MMF (50 or 100 μM), DMF (25 μM), AOAA (5 mM), oligomycin (10 μM), CCCP (50 μM) NAC (1 mM), and IMT1 (10 μM) pre-treatments were performed for 3 h prior the addition of LPS. Cells were treated with valinomycin (10 nM) 15 mins before LPS stimulation. Anti-CD210 or IgG control (10 μg/ml) antibodies were added to cells 1 h prior to LPS stimulation. Recombinant mouse IL-10 protein (100 ng/ml) was added to cells at the same time as LPS. Cells were treated with IFN-B1 (220 ng/ml) for 3 h. Cells were treated with C-178 (1 μM) 1 h prior to LPS stimulation or transfection with 2′3′-cGAMP (1.5 μg/ml) for 4 hrs to achieve cGAS-STING activation. Cells were treated with ODN 2088 (1 μM) for 1 hr prior to LPS stimulation or transfection with CPG ODN 1826 (1.5 μg/ml) to achieve TLR9 activation. 3 different timepoints of 4-hydroxy tamoxifen (TAM) (600 nM or 2 μM) or EtOH treatment were performed-these are specified in the individual figure legends. For ‘48 h’ treatments EtOH/TAM was added on day 5 of 6 during the BMDM differentiation protocol. On day 6 they were plated with EtOH/TAM (left overnight) and treated the following day. For ‘72 h’ treatments EtOH/TAM was added on day […] of 6 during the BMDM differentiation protocol. On day 6 they were plated with EtOH/TAM (left overnight) and treated the following day. For ‘96 h’ treatments EtOH/TAM was added on day […] of 6 during the BMDM differentiation protocol. On day 6 they were plated with EtOH/TAM and treated 2 days later.
Supernatant was removed from cells following stimulation and lysates were harvested in 30-50 μl lysis buffer (0.125 M Tris pH 6.8, 10% glycerol, 0.02% SDS, 5% DTT) Lysates were subsequently heated to 95° C. for 5 mins to denature proteins. SDS-PAGE was used to resolve proteins by molecular weight. Samples were boiled at 95° C. for 5 mins prior to loading into a 5% stacking gel. The percentage resolving gel depended on the molecular weight of the given protein. The Bio-Rad gel running system was used to resolve proteins and the Bio-Rad wet transfer system was used for the electrophoretic transfer of proteins onto PVDF membrane. Following transfer, the membrane was incubated in milk powder (5% in TBST) for 1 hr and subsequently incubated in primary antibody rolling overnight at 4° C. Primary antibodies targeting phospho-proteins were diluted in BSA (5% in TBST) as opposed to milk. The membrane was incubated for 1 hr with secondary antibody (diluted in 5% milk powder) at room temperature. Prior to visualisation, the membrane was immersed in WesternBright ECL Spray (Advansta). Protein visualisation took place on a ChemiDoc MPTM Imaging System (Bio-Rad), and both chemiluminescent and white light images were taken. Images were analysed using Image Lab 6.0.1 (Bio-Rad).

mice = test: LPS-induced inflammation model, serum IFN-β; format: in vivo, mouse; settings: 50 mg/kg intraperitoneally 1 hour before LPS 2.5 mg/kg, blood 2 hours later
Description: 6-week-old male mice were used, and littermates were randomly assigned to experimental groups. Compounds were resuspended in 10% DMSO followed by 90% cyclodextrin/PBS (20% w/v). Mice were injected intraperitoneally with vehicle, FHIN1 or DMF (both 50 mg/kg) at a volume of 200 μl per injection. 1 hour later, mice were injected intraperitoneally with PBS or LPS from E. coli (2.5 mg/kg, Sigma) at a volume of 100 μl per injection. 2 hours later, mice were euthanised and blood was harvested retro-orbitally. Blood was allowed to clot for 30 mins at room temperature before it was centrifuged at 5000×g for 10 mins at 4° C. The serum was removed and IFN-β concentration was determined by ELISA. DuoSet ELISA kits for IL-1β, TNFα, IL-6, IL-10, and GDF15 were purchased from R&D Systems and were carried out according to the manufacturer's instructions with appropriately diluted cell supernatants added to each plate in duplicate or triplicate. IFN-β was determined using DuoSet ELISA kit from R&D Systems or Abcam (ab252363). […] Absorbance at 450 nm was quantified using a FLUOstar Optima plate reader. Corrected absorbance values were calculated by subtracting the background absorbance, and cytokine concentrations were subsequently obtained by extrapolation from a standard curve plotted on GraphPad Prism 9.2.0.

SMILES	LPS-induced p65 phosphorylation (BMDMs; BMDMs pre-treated)	IFN-β-induced STAT1 and JAK1 phosphorylation (BMDMs)	upstream kinases (AKT, JNK, ERK and p38), total and phospho levels (BMDMs)	LPS-induced IFN-β release into the serum (mice)	LPS-induced IL-1β expression (IL-1β levels) (BMDMs; BMDMs pre-treated)	LPS-induced TRAF3 levels (BMDMs; BMDMs pre-treated, LPS 4 h)	TBK1 phosphorylation (BMDMs; BMDMs pre-treated, LPS 4 h)	STAT3 phosphorylation (BMDMs; BMDMs pre-treated, co-treated with recombinant IL-10 100 ng/ml, LPS 4 h)
COC(=O)/C=C/C(=O)OC [DMF, dimethyl fumarate]	modestly augment	limited	did not observe changes	no effect	–	–	–	–
CCOC(=O)[C@@]12CCCC=C1N(Cc1ccc(-c3ccccc3)cc1)C(=O)[C@H]2CC(=O)NC [FHIN1, Fumarate hydratase-IN-1]	modestly augment	limited	did not observe changes	increased	not increased	not increased	increased	failed to impair

Source: patent publication US20250018019A1, “TREATMENT OF INTERFERON DRIVEN INFLAMMATION” (The Provost, Fellows, Foundation Scholars and the other …, priority 2023, published 2025)
